Measured values taken from publication PMC8286840, “Identifying SARS-CoV-2 antiviral compounds by screening for small molecule inhibitors of Nsp3 papain-like protease” (Biochemical Journal, 2021).
Where a name gives a salt, the structure may show the parent alone. Read-outs that look alike come from different tables or passages of the source. Where a SMILES comes first, the peptide text is derived from it. [ ]: non-standard residue; d: D form. The star is where a group is joined. Benzoyl(4-tBu) = CC(C)(C)c1ccc(C(=O)*)cc1; Lys(Et2) = CCN(CC)CCCC[C@H](N)C(=O)O

Columns and labels:
[1] = molecular target: T1, SARS-CoV-2 PLpro (nsp3 1564–1878) (Severe acute respiratory syndrome coronavirus 2, UniProt P0DTD1); test: biochemical; design: FRET-quenched peptide (Pro3) cleavage by PLpro, 10 min pre-incubation, slope over 20 min, normalised to no-compound control; conditions: low concentration screen, read-out: % of control remaining
[2] = molecular target: T1, SARS-CoV-2 PLpro (nsp3 1564–1878); test: biochemical; design: FRET-quenched peptide (Pro3) cleavage by PLpro, 10 min pre-incubation, slope over 20 min, normalised to no-compound control; conditions: high concentration screen, read-out: % of control remaining

In the case of `CCOC(=O)[C@H](Cc1ccc([N+](=O)[O-])cc1)NC(=O)c1ccccc1` [SB 297006], the remaining activity at 1.25 µM ([1]; Well no.=5801) is reported as 98.7% and the remaining activity at 3.75 µM ([2]; Well no.=5801) is reported as 98.4%.
Molecule `O=C(O[C@@H]1Cc2c(O)cc(O)cc2O[C@@H]1c1cc(O)c(O)c(O)c1)c1cc(O)c(O)c(O)c1` [Epigallocatechin gallate] has a remaining activity at 1.25 µM ([1]; Well no.=3895) of 98.4% and a remaining activity at 3.75 µM ([2]; Well no.=3895) of 101%.
`CCCCC/C=C\C/C=C\CCCCCCCC(N)=O` [Linoleamide] showed a remaining activity at 1.25 µM ([1]; Well no.=4338) of 101% and a remaining activity at 3.75 µM ([2]; Well no.=4338) of 92.5%.
`CC(=O)OCC(=O)[C@@]12OC(C)(C)O[C@@H]1C[C@H]1[C@@H]3C[C@H](F)C4=CC(=O)C=C[C@]4(C)[C@@]3(F)[C@@H](O)C[C@@]12C` [Fluocinonide] was tested, and the remaining activity at 1.25 µM ([1]; Well no.=6805) was 98.5% and the remaining activity at 3.75 µM ([2]; Well no.=6805) was 99.9%.
`COc1cc(C(=O)NS(=O)(=O)c2ccccc2C)ccc1Cc1cn(C)c2ccc(NC(=O)OC3CCCC3)cc12` [Zafirlukast] showed a remaining activity at 1.25 µM ([1]; Well no.=1762) of 99.5%, a remaining activity at 1.25 µM ([1]; Well no.=8579) of 102% and a remaining activity at 3.75 µM ([2]; Well no.=8579) of 101%.
With `O=P(O)(O)C(O)(Cc1cccnc1)P(=O)(O)O` [Risedronic acid] the remaining activity at 1.25 µM ([1]; Well no.=1989) was 97.8% and the remaining activity at 3.75 µM ([2]; Well no.=1989) was 96.9%.
`O=c1[nH]cnc2c1ncn2[C@H]1C[C@H](O)[C@@H](CO)O1` [2'-Deoxyinosine] was tested, and the remaining activity at 1.25 µM ([1]; Well no.=7497) was 106%, the remaining activity at 1.25 µM ([1]; Well no.=7712) was 95% and the remaining activity at 3.75 µM ([2]; Well no.=7497) was 105%. For the same molecule, the remaining activity at 3.75 µM ([2]; Well no.=7712) was 96.3%.
Work on `CCCCCCCCCCCCCCCC(=O)NCCc1ccc(O)c(O)c1` [Palmitoyl dopamine] yielded a remaining activity at 1.25 µM ([1]; Well no.=4261) of 101% and a remaining activity at 3.75 µM ([2]; Well no.=4261) of 98.2%.
`CC[C@@H](CO)NC(=O)[C@@H]1C=C2c3cccc4c3c(cn4C)C[C@H]2N(C)C1` [Methysergide maleate] gave a remaining activity at 1.25 µM ([1]; Well no.=1087) of 94.2%, a remaining activity at 1.25 µM ([1]; Well no.=2284) of 94.8% and a remaining activity at 3.75 µM ([2]; Well no.=2284) of 90.3%.
For `CCCCN(CCCC)CC(O)c1cc(Cl)cc2c1-c1ccc(Cl)cc1/C2=C/c1ccc(Cl)cc1` (stereo not shown) [Lumefantrine], the remaining activity at 1.25 µM ([1]; Well no.=5499) was 102% and the remaining activity at 3.75 µM ([2]; Well no.=5499) was 108%.
For `CCN(CC)CCCC[C@H](NC(=O)[C@H](CC(C)C)NC(=O)[C@H](C)NC(=O)[C@H](Cc1ccccc1)NC(=O)c1ccc(C(C)(C)C)cc1)C(=O)N[C@@H](CO)C(=O)OC` [UNC3866] ({Benzoyl(4-tBu)}-FAL[Lys(Et2)]S-OMe), the remaining activity at 1.25 µM ([1]; Well no.=8220) was 101% and the remaining activity at 3.75 µM ([2]; Well no.=8220) was 103%.
For `CC(C)CC(=O)Nc1n[nH]c2c1CN(C(=O)C1CCN(C)CC1)C2(C)C` [PHA-793887], the remaining activity at 1.25 µM ([1]; Well no.=4907) was 94.3% and the remaining activity at 3.75 µM ([2]; Well no.=4907) was 93.7%.
`CC[C@H](C)C[C@H](C)CCCCCCCCC(=O)N[C@H]1C[C@@H](O)[C@@H](NCCN)NC(=O)[C@@H]2[C@@H](O)CCN2C(=O)[C@H]([C@H](O)CCN)NC(=O)[C@H]([C@H](O)[C@@H](O)c2ccc(O)cc2)NC(=O)[C@@H]2C[C@@H](O)CN2C(=O)[C@H]([C@@H](C)O)NC1=O` [Caspofungin Acetate] was tested, and the remaining activity at 1.25 µM ([1]; Well no.=5317) was 99.9% and the remaining activity at 3.75 µM ([2]; Well no.=5317) was 95.7%.
`c1ccc(-c2[nH]ncc2-c2ccnc3ccccc23)nc1` [LY 364947 - 4-[3-(2-Pyridinyl)-1H-pyrazol-4-yl]-quinoline] showed a remaining activity at 1.25 µM ([1]; Well no.=2622) of 96.3% and a remaining activity at 3.75 µM ([2]; Well no.=2622) of 101%.
Molecule `CC(C)[C@H](CO)Nc1nc(Nc2cc(N)cc(Cl)c2)c2ncn(C(C)C)c2n1` [Aminopurvalanol A] has a remaining activity at 1.25 µM ([1]; Well no.=2322) of 97.1% and a remaining activity at 3.75 µM ([2]; Well no.=2322) of 97.4%.
`N[C@@H](CO)C(=O)O` [L-Serine] was tested, and the remaining activity at 1.25 µM ([1]; Well no.=7695) was 105% and the remaining activity at 3.75 µM ([2]; Well no.=7695) was 110%.
In the case of `Clc1cccc(CN=C2Nc3ccccc3NC23CCNCC3)c1` [Liproxstatin-1], the remaining activity at 1.25 µM ([1]; Well no.=5945) is reported as 98.7%, the remaining activity at 1.25 µM ([1]; Well no.=6402) is reported as 94.5% and the remaining activity at 3.75 µM ([2]; Well no.=5945) is reported as 97.6%. For the same molecule, the remaining activity at 3.75 µM ([2]; Well no.=6402) was 93.9%.
`C[C@H](CCC(=O)O)[C@H]1CC[C@H]2[C@@H]3C[C@H](O)[C@@H]4C[C@H](O)CC[C@]4(C)[C@H]3CC[C@]12C` [Hyodeoxycholic acid] was tested, and the remaining activity at 1.25 µM ([1]; Well no.=5868) was 103% and the remaining activity at 3.75 µM ([2]; Well no.=5868) was 101%.
Work on `Cc1ccccc1N=Nc1ccc(NC(=O)c2ccnn2C)c(C)c1` [CH-223191] yielded a remaining activity at 1.25 µM ([1]; Well no.=5835) of 97.1%, a remaining activity at 1.25 µM ([1]; Well no.=7892) of 99.1% and a remaining activity at 3.75 µM ([2]; Well no.=5835) of 98.7%. For the same molecule, the remaining activity at 3.75 µM ([2]; Well no.=7892) was 95.5%.
In the case of `Cc1ccccc1C(=O)Nc1ccc(C(=O)N2CCCC(O)c3cc(Cl)ccc32)c(C)c1` (stereo not shown) [Tolvaptan], the remaining activity at 1.25 µM ([1]; Well no.=7517) is reported as 102%, the remaining activity at 1.25 µM ([1]; Well no.=8388) is reported as 97.7% and the remaining activity at 3.75 µM ([2]; Well no.=7517) is reported as 95.6%. For the same molecule, the remaining activity at 3.75 µM ([2]; Well no.=8388) was 97.5%.
`CCc1cccc2c1c(O)c(C(=O)N(CC)c1ccccc1)c(=O)n2C` [Paquinimod] gave a remaining activity at 1.25 µM ([1]; Well no.=8373) of 92.6% and a remaining activity at 3.75 µM ([2]; Well no.=8373) of 92.5%.
Molecule `Clc1ccc(C(c2ccc(Cl)cc2)[n+]2ccn(CC(OCc3ccc(Cl)cc3Cl)c3ccc(Cl)cc3Cl)c2)cc1` (stereo not shown) [Calmidazolium chloride] has a remaining activity at 1.25 µM ([1]; Well no.=174) of 101% and a remaining activity at 3.75 µM ([2]; Well no.=174) of 94.5%.
Molecule `N/C(=N\C(=O)c1nc(Cl)c(N)nc1N)NCc1ccc(Cl)c(Cl)c1` [3',4'-Dichlorobenzamil] has a remaining activity at 1.25 µM ([1]; Well no.=440) of 99.5% and a remaining activity at 3.75 µM ([2]; Well no.=440) of 88.3%.
`CC(C)n1cnc2c(NCc3ccccc3)nc(NCCO)nc21` [N9-Isopropylolomoucine] gave a remaining activity at 1.25 µM ([1]; Well no.=716) of 96.5% and a remaining activity at 3.75 µM ([2]; Well no.=716) of 98.5%.
`C=CC[C@@H]1/C=C(\C)C[C@H](C)C[C@H](OC)[C@H]2O[C@@](O)(C(=O)C(=O)N3CCCC[C@H]3C(=O)O[C@H](/C(C)=C/[C@@H]3CC[C@@H](O)[C@H](OC)C3)[C@H](C)[C@@H](O)CC1=O)[C@H](C)C[C@@H]2OC` [FK-506 (Tacrolimus)] was tested, and the remaining activity at 1.25 µM ([1]; Well no.=5168) was 94% and the remaining activity at 3.75 µM ([2]; Well no.=5168) was 97.7%.
`C=C1C(=O)O[C@@H]2C[C@@]3(C)CCCC(=C)[C@@H]3C[C@H]12` [Isoalantolactone] was tested, and the remaining activity at 1.25 µM ([1]; Well no.=6728) was 97.1% and the remaining activity at 3.75 µM ([2]; Well no.=6728) was 93.6%.
Work on `CN(C)C(=O)C(CCN1CCC(O)(c2ccc(Cl)cc2)CC1)(c1ccccc1)c1ccccc1` [Loperamide (hydrochloride)] yielded a remaining activity at 1.25 µM ([1]; Well no.=7427) of 97.7% and a remaining activity at 3.75 µM ([2]; Well no.=7427) of 101%.
With `Nc1cccc2c1C(=O)N(C1CCC(=O)NC1=O)C2=O` (stereo not shown) [Pomalidomide] the remaining activity at 1.25 µM ([1]; Well no.=4963) was 100% and the remaining activity at 3.75 µM ([2]; Well no.=4963) was 96.3%.
`O=C1C[C@@H](c2ccc(O)c(O)c2)Oc2cc(O[C@@H]3O[C@H](CO)[C@@H](O)[C@H](O)[C@H]3O)cc(O)c21` [Eriodictyol-7-O-glucoside] was tested, and the remaining activity at 1.25 µM ([1]; Well no.=3261) was 96.6% and the remaining activity at 3.75 µM ([2]; Well no.=3261) was 95.5%.
Molecule `N#Cc1ccc([C@H]2CCc3cncn32)c(F)c1` [LCI699] has a remaining activity at 1.25 µM ([1]; Well no.=8526) of 98.2% and a remaining activity at 3.75 µM ([2]; Well no.=8526) of 98.2%.
